Reference: ChEMBL document CHEMBL1201862, “PubChem BioAssay data set” (2004)
The source made the active and inactive calls.

Assays:
[1] = cells; type: functional, cell-based
[2] = cells; type: functional, cell-based; remark: listed apart in the source
[3] = cells; type: functional, cell-based; remark: listed apart in the source
[4] = molecular target: T1, Nuclear receptor subfamily 0 group B member 1 (Homo sapiens, UniProt P51843); type: functional, cell-based;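 note: HEK293T cells transfected with SF-1 and DAX-1 plus StAR promoter luciferase reporter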
T1 sequence (P51843 whole entry): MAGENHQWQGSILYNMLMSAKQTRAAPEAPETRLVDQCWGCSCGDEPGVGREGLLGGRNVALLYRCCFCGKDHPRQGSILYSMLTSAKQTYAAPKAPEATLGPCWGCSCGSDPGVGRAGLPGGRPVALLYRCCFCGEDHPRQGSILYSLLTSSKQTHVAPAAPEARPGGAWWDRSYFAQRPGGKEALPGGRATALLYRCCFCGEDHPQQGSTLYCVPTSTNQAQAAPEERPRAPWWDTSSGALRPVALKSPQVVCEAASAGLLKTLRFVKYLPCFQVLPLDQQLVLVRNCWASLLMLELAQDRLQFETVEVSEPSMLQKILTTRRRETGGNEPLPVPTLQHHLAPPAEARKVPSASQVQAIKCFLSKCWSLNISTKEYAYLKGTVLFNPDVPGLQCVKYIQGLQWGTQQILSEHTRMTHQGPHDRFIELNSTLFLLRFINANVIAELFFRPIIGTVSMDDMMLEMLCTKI

[5] = Luminescence Cell-Based Dose Confirmation HTS to Identify Activators of 5'UTR Stem-Loop Driven Alpha-Synuclein mRNA Translation in H4 Neuroglioblastoma Cells. [Related pubchem assays: 1829 (Project Summary), 1814 (Primary HTS)]; type: functional
[6] = Luminescence Cell-Based Dose Response HTS to Identify Activators of Luciferase Translation or Activity in H4 […] Cells. [Related pubchem assays: 1829 (Project Summary), 1814 (Primary HTS)]; type: functional
[7] = system: H4; test: Luminescence Cell-Based Dose Response HTS to Identify Activators of 5'UTR Stem-Loop Driven Prion Protein mRNA Translation in H4 Neuroglioblastoma Cells. [Related pubchem assays: 1829 (Project Summary), 1814 (Primary HTS)]; type: functional; conditions: Homo sapiens
[8] = molecular target: Cytochrome P450 2C19 (Homo sapiens, UniProt P33261); test: Cytochrome panel assay with activity outcomes. Panel member name: p450-cyp2c19 Compounds with AC50 equal or less than 10 uM are considered active; type: functional; conditions: read-out: AC50
Chain of Cytochrome P450 2C19 (P33261 whole entry): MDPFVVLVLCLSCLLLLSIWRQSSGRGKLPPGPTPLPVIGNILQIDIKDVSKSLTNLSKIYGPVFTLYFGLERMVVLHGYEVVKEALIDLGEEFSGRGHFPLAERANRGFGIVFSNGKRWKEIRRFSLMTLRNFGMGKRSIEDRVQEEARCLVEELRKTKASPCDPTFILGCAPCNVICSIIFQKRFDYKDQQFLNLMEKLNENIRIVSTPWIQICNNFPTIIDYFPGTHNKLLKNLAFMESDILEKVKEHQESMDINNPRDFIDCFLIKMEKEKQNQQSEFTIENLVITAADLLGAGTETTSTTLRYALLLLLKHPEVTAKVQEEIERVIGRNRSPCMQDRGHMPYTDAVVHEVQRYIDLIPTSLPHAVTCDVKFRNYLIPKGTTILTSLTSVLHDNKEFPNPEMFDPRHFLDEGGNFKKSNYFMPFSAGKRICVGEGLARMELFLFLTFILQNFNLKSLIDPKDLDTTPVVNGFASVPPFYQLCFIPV

[9] = molecular target: 26S proteasome non-ATPase regulatory subunit 14 (Homo sapiens, UniProt O00487); test: inhibition of proteasome subunit RPN11 – biochemical, fluorescence polarization, uHTS hits, confirmation (AID 602368); type: functional
Chain of 26S proteasome non-ATPase regulatory subunit 14 (O00487 whole entry): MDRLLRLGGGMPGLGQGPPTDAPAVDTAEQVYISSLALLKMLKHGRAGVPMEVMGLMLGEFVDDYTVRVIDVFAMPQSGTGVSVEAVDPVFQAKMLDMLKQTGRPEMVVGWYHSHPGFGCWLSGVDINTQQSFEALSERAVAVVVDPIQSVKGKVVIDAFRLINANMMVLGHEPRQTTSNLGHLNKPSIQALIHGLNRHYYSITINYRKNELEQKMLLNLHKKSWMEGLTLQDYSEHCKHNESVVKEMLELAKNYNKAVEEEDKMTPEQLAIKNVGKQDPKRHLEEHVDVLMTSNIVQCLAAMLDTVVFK

[10] = molecular target: 72 kDa type IV collagenase (Homo sapiens, UniProt P08253); test: Dose Response validation of uHTS RPN11 inhibitor hits using a MMP-2 Fluorescence assay.; type: functional
Chain of 72 kDa type IV collagenase (P08253 whole entry): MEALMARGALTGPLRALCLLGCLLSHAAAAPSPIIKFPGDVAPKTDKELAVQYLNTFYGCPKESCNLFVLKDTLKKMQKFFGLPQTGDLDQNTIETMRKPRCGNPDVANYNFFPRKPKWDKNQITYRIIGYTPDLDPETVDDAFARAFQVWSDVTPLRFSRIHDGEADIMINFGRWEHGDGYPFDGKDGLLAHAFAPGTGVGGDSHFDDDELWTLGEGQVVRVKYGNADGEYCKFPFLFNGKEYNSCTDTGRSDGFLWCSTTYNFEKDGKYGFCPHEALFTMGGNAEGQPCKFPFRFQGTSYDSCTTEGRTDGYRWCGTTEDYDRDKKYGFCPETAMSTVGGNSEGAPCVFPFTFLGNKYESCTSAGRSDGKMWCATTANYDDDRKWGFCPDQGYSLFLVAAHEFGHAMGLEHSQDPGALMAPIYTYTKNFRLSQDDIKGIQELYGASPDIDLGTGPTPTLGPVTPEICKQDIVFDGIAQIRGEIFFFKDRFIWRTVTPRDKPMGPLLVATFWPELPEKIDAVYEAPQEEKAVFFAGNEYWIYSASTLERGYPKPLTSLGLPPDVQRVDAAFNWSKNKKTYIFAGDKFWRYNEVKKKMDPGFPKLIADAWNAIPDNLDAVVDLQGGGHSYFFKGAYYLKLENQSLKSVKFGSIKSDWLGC

[11] = molecular target: Prothrombin (Bos taurus, UniProt P00735); test: thrombin protease inhibitors – biochemical, fluorescence polarization, uHTS hits, dose response (AID 602369); type: functional
[12] = molecular target: Cytochrome P450 3A4 (Homo sapiens, UniProt P08684);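 note: CYP3A4 tested as one member of a cytochrome P450 panel screen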
Chain of Cytochrome P450 3A4 (P08684 whole entry): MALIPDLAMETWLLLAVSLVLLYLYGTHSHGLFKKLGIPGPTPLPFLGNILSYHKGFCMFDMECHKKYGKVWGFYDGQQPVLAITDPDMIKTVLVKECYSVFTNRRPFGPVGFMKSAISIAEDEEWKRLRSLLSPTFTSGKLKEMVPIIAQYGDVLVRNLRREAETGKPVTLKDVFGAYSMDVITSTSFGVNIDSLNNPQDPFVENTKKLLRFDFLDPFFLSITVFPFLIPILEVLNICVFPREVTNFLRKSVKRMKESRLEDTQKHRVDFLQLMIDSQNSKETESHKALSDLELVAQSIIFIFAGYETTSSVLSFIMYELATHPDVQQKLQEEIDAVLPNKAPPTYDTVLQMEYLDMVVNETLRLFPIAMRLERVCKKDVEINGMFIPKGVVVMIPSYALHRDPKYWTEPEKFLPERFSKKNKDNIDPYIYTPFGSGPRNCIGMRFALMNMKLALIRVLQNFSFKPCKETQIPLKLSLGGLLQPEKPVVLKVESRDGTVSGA

[13] = molecular target: Cytochrome P450 2C9 (Homo sapiens, UniProt P11712)
Chain of Cytochrome P450 2C9 (P11712 whole entry): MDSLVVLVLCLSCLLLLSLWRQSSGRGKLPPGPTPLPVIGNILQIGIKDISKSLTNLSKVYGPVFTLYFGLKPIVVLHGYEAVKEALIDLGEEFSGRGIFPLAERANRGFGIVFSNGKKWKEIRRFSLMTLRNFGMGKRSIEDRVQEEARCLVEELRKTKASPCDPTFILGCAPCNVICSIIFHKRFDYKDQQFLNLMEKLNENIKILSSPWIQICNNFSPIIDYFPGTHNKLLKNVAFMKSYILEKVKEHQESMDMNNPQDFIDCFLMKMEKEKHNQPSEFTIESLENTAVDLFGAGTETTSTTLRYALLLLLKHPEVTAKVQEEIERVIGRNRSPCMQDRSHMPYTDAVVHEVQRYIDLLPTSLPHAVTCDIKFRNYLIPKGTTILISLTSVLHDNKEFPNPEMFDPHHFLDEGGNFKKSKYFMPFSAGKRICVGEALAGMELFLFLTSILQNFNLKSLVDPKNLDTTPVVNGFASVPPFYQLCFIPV

[14] = molecular target: Melanocortin receptor 4 (Homo sapiens, UniProt P32245); type: functional, cell-based;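 note: Cell-based assay with luminescence read-out, confirmatory dose-response testing for agonist activity of biased ligands at MC4R; human U2OS cells with tagged receptor and beta-arrestin; potency of agonists that increase receptor coupling to beta-arrestin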
Chain of Melanocortin receptor 4 (P32245 whole entry): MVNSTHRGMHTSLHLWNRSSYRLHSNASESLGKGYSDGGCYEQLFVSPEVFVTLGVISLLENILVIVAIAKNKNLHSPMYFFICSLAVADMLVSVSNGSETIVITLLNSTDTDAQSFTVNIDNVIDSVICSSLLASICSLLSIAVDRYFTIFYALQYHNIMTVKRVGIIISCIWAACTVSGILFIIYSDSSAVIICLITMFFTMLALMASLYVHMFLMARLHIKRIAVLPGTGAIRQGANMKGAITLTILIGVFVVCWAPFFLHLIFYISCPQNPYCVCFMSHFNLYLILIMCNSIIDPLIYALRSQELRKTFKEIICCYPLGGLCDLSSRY

[15] = molecular target: T2, Probable nicotinate-nucleotide adenylyltransferase (Staphylococcus aureus (strain N315), UniProt P65502); type: functional, Staphylococcus aureus subsp. aureus N315;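 for IC50 Mean: confirmatory dose-response retesting of NadD inhibitor hits first found in an ultra-high-throughput screen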
T2 sequence (P65502 whole entry): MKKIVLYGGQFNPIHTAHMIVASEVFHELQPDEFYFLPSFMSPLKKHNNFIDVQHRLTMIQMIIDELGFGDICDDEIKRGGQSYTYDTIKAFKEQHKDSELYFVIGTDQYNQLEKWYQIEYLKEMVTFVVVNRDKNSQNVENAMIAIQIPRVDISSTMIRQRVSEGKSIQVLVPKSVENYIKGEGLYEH

[16] = molecular target: T2, Probable nicotinate-nucleotide adenylyltransferase; type: functional, Staphylococcus aureus subsp. aureus N315; conditions: read-out: IC50_Mean
[17] = system: HeLa; test: ATP-based viability loss in HeLa cells – cell-based, CellTiter-Glo luminescence, cherry-pick samples, cytotoxicity control for MITF activator project, dose response (AID 540259); type: functional; conditions: Homo sapiens
[18] = system: H9c2; test: cells; type: functional, cell-based; conditions: Rattus norvegicus, H9c2, Myocardium;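 note: confirmatory concentration-response retest of ultra-high-throughput screening hits for modulation of myocardial damage; cell death induced by hydrogen peroxide oxidative stress; compound pretreatment for 60 min then peroxide exposure for 2 h; potency is for protecting the cells against peroxide damage rather than for killing them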
[19] = molecular target: Disintegrin and metalloproteinase domain-containing protein 17 (Homo sapiens, UniProt P78536); test: exosite inhibitors of ADAM17, dose response, biochemical (AID 743260)
Chain of Disintegrin and metalloproteinase domain-containing protein 17 (P78536 whole entry, the tested form may be a part): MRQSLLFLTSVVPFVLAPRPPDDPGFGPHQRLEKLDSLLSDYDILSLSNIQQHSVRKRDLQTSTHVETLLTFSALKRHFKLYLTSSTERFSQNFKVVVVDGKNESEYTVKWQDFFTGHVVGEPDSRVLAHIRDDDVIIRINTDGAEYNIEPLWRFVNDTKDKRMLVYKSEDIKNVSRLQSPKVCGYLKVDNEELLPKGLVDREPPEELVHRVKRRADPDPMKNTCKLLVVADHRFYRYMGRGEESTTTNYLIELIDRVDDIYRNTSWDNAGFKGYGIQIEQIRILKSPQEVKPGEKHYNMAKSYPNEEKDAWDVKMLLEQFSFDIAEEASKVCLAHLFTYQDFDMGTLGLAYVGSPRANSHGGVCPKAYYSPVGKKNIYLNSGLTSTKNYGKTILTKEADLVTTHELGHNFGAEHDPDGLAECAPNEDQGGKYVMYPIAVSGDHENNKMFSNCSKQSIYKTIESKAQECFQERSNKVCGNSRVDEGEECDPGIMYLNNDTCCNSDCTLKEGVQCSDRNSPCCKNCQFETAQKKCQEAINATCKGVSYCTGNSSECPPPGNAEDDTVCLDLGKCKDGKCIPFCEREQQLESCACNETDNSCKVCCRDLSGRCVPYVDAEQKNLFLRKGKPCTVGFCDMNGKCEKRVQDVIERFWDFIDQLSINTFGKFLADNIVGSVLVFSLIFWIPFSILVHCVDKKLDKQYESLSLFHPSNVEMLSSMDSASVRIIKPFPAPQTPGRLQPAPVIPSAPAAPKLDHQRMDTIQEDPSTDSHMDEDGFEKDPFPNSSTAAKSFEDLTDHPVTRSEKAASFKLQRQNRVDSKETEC

[20] = inhibition of ADAM10 peptide cleavage – biochemical, FRET peptide substrate, recombinant human ADAM10, selectivity assay for ADAM17 exosite inhibitor project, dose response (AID 743259);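 note: ADAM10 enzyme cleaving a FRET peptide substrate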
[21] = system: HeLa; test: viability loss in HeLa cells – cell-based, ATP luminescence, cherry-pick samples, cytotoxicity control, dose response (AID 687004); type: functional; conditions: Homo sapiens
[22] = molecular target: Induced myeloid leukemia cell differentiation protein Mcl-1 (Homo sapiens, UniProt Q07820); type: functional
Chain of Induced myeloid leukemia cell differentiation protein Mcl-1 (Q07820 whole entry, the tested form may be a part): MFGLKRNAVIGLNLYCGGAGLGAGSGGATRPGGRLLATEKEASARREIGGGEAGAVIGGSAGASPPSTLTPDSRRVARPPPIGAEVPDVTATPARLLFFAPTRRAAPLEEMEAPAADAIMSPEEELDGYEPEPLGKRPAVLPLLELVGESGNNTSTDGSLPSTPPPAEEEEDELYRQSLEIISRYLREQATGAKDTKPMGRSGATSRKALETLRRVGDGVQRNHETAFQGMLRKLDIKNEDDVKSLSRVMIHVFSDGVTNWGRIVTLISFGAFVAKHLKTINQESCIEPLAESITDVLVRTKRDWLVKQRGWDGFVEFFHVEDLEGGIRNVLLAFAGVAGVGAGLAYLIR

[23] = molecular target: T3, Carboxy-terminal domain RNA polymerase II polypeptide A small phosphatase 1 (Homo sapiens, UniProt Q9GZU7); test: CTDSP1 inhibitors, concentration-response, biochemical, absorbance readout, ultra-high-throughput screen actives (AID 540297); type: functional
T3 sequence (Q9GZU7 whole entry): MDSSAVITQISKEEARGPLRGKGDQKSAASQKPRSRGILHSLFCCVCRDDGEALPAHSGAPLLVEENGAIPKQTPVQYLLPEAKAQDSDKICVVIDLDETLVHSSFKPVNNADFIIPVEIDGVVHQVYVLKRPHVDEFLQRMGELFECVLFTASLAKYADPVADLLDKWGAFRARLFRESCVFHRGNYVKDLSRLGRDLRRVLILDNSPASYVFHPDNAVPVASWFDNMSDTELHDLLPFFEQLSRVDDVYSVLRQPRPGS

[24] = viability of uninfected HEp-2 cells – cell-based, HTS, cytotoxicity control for RSV inhibitor project, dose response (AID 2410); type: functional; conditions: human respiratory syncytial virus
[25] = molecular target: T4, High affinity choline transporter 1 (Homo sapiens, UniProt Q9GZV3); test: human choline transporter blockers, potency – cell-based, 5-point CRC, membrane potential dye, dose response (AID 504840); type: functional
T4 sequence (Q9GZV3 whole entry): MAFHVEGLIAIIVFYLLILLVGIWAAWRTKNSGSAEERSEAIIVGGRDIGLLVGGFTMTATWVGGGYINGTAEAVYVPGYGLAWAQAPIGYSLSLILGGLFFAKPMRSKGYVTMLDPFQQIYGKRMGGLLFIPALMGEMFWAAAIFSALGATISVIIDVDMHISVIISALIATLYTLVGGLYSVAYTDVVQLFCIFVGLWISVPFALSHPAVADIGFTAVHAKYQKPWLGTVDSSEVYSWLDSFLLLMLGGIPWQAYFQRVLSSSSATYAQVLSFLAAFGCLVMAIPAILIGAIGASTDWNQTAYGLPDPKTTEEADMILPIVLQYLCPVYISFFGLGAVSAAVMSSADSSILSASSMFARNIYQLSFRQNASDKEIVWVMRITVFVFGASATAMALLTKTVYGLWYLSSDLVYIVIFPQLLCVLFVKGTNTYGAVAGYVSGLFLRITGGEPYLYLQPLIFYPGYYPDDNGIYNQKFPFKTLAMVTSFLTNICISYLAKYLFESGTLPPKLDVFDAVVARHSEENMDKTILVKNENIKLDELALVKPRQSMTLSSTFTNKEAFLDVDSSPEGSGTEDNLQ

[26] = system: Vero; test: cells; type: functional; conditions: Chlorocebus sabaeus

SMILES: Cc1nn(C(=O)CCC(=O)NCCc2ccccc2)c2ccccc12
- IC50 [1]: > 29.9 µM (inactive)
- EC50 [2]: > 29.9 µM (inactive)

SMILES: COc1ccc(-n2nc3cc(C)c(NC(C)=O)cc3n2)cc1
- IC50 [3]: > 67.6 µM (inactive)
- IC50 [4]: > 0.278 µM (active)

SMILES: CCc1ccc(-c2cc(C(=O)NCc3ccco3)c3ccccc3n2)s1
- EC50 [5]: 11.2 µM (active)
- EC50 [6]: 5.65 µM (active)
- EC50 [7]: 23.9 µM (active)
- AC50 [8]: 4.47 µM (inconclusive)
- IC50 [9]: 40.7 µM (active)
- IC50 [10]: > 100 µM (inactive)
- IC50 [11]: 55.8 µM (active)
- AC50 [12]: 15.8 µM (inconclusive)
- AC50 [13]: 2 µM (inconclusive)

SMILES: CCOCCCN(Cc1ccco1)C(=O)c1cc2c(=O)[nH]c3ccc(C)cc3c2s1
- EC50 [14]: > 89.2 µM (inactive)

SMILES: NC(CSC1(c2cccc3ccccc23)c2ccccc2-c2ccccc21)C(=O)O (stereo not drawn)
- IC50 [15]: 9.51 µM (active)
- IC50 [16]: 27.7 µM (active)

SMILES: CCCCNc1ccc2c(c1)C1CC2CCN1C(=O)OCc1ccccc1 (stereo not drawn)
- AC50 [17]: 76.2 µM (active)
- IC50 [3]: > 67.5 µM (inactive)
- IC50 [4]: > 67.5 µM (inactive)

SMILES: Cc1ccc([S+]([O-])Cc2ccc(C(=O)N3CCN(C4CCCCC4)CC3)o2)cc1 (stereo not drawn)
- IC50 [3]: > 67.6 µM (inactive)
- IC50 [4]: > 67.6 µM (inactive)

SMILES: COc1ccccc1-c1cc(NC(C)=O)c2ncc(-c3cccc(C(C)=O)c3)n2c1
- IC50 [18]: > 79 µM (inactive)
- EC50 [14]: > 89.2 µM (inactive)

SMILES: O=C1NC(=O)C(c2ccc(Cl)cc2)N1 (stereo not drawn)
- IC50 [19]: > 69.4 µM (inactive)
- IC50 [20]: > 69.4 µM (inactive)

SMILES: COc1cccc(C(NC(C)=O)c2nc(-c3ccc4ccccc4c3)cs2)c1 (stereo not drawn)
- IC50 [19]: > 69.5 µM (inactive)
- IC50 [20]: 18.5 µM (inactive)

SMILES: C[C@@H]1CN([C@@H](C)CO)C(=O)Cc2cc(NS(=O)(=O)c3ccccc3)ccc2O[C@@H]1CN(C)Cc1ccc(Cl)c(Cl)c1
- AC50 [21]: 43.7 µM (active)

SMILES: C[C@H](CO)N1C[C@H](C)[C@@H](CN(C)Cc2ccncc2)Oc2ccc(NC(=O)CCC(F)(F)F)cc2C1=O
- AC50 [21]: 23.4 µM (active)

SMILES: O=C(N/N=C\C=C\c1ccco1)c1cc(-c2ccc3ccccc3c2)[nH]n1
- IC50 [22]: 3.98 µM (active)
- IC50 [23]: 2.96 µM (active)
- IC50 [15]: 6.68 µM (active)
- IC50 [16]: 20.3 µM (active)

SMILES: CN1C(=O)/C(=N\c2ccc(O)cc2)c2c3ccccc3c(O)c3cccc1c23
- CC50 [24]: 16.8 µM (active)
- IC50 [25]: 12.3 µM (active)
- CC50 [26]: > 25 µM (active)
- IC50 [19]: > 69.5 µM (inactive)
- IC50 [20]: 28.9 µM (inactive)
